Assay results from PMC7354218 (ACS infectious diseases, 2020).
Several values for one entry are separate records, joined by “and”; a condition that tells them apart may be missing. Equal entries are not always repeated. Structures can show the parent of a compound that is named as a salt. Where two headings read alike, the source gives them in different places.

Tests used:
K. oxytoca = format: cell-based, Klebsiella oxytoca
NpsA [1] = format: binding, Klebsiella oxytoca; conditions: pH 6.8
NpsA [2] = format: biochemical, Klebsiella oxytoca; conditions: read-out: appKi
[3] = test system: K. oxytoca strain MIT 10-5243; format: cell-based, Klebsiella oxytoca; conditions: read-out: IC50 for inhibition of tilivalline production
NpsA [4] = format: biochemical, Klebsiella oxytoca
NpsB = format: biochemical, Klebsiella oxytoca; conditions: pH 8
NpsA (wt-NpsA) [5] = molecular target: T1, NpsA (wt-NpsA) (Klebsiella oxytoca, UniProt A0A291NW45); test: biochemical; conditions: n = 3
T1 sequence (A0A291NW45 1-506): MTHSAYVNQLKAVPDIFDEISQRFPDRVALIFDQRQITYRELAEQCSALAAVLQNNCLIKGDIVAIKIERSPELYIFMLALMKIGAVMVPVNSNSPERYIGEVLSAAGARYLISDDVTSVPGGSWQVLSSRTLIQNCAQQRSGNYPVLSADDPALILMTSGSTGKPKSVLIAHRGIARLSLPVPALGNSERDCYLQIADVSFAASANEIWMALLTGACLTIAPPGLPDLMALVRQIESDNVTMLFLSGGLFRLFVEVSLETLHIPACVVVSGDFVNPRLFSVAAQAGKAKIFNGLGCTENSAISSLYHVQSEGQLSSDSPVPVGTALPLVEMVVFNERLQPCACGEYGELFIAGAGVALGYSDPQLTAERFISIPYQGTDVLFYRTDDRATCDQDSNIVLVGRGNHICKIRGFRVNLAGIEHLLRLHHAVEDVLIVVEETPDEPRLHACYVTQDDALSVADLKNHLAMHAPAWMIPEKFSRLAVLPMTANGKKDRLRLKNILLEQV
T1 sequence (A0A291NW67 1-76 partner): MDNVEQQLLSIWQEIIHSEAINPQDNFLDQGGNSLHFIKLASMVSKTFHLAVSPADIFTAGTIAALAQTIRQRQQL

NpsA (wt-NpsA) [6] = molecular target: T1, NpsA (wt-NpsA); test: biochemical; format: binding; conditions: n = 3
O=C(O)c1cccc(O)c1 = test: purified protein, by the assay type; conditions: pH 8.0
[7] = test system: Nc1ncnc2c1ncn2[C@@H]1O[C@H](COP(=O)(O)OP(=O)(O)OP(=O)(O)O)[C@@H](O)[C@H]1O; test: purified protein, by the assay type; conditions: pH 8.0
Nc1c(O)cccc1C(=O)O = test: purified protein, by the assay type; conditions: pH 8.0

## 5′-[N-(2-Amino-3-hydroxybenzoyl)sulfamoyl]amino-5′-deoxyadenosine triethylammonium salt [Compound 5]
K. oxytoca
  growth inhibition of K. oxytoca: does not inhibit growth
NpsA [1]
  Kd: 29 nM and 29.3 nM
NpsA [2]
  Ki: 54 nM

## 5′-[N-(2-Aminobenzoyl)sulfamoyl]amino-5′-deoxyadenosine triethylammonium salt [Compound 9]
NpsA [1]
  Kd: 485 nM
NpsA [2]
  Ki: 1200 nM

## 5′-[N-(3-Hydroxybenzoyl)sulfamoyl]amino-5′-deoxyadenosine triethylammonium salt [Compound 8]
K. oxytoca
  growth inhibition of K. oxytoca: no observable growth inhibition
[3]
  IC50: 29000 nM
NpsA [1]
  Kd: 112 nM
NpsA [2]
  Ki: 230 nM

## Nc1c(O)cccc1C(=O)O [3-Hydroxyanthranilic acid]
NpsA [4]; pH 8
  kcat (apparent): 0.78 ± 0.01 s⁻¹
NpsA [4]; read-out: KM (apparent), pH 8
  Km: 63 µM

## O=C(O)c1cccc(O)c1 [3-Hydroxybenzoic acid]
NpsA [4]
  fold decrease in specificity constant (kcat/KM): 200 fold
NpsA [4]; pH 8
  kcat (apparent): 0.35 ± 0.07 s⁻¹
NpsA [4]; read-out: KM (apparent), pH 8
  Km: 4000 µM

## Nc1ncnc2c1ncn2[C@@H]1O[C@H](COP(=O)(O)OP(=O)(O)OP(=O)(O)O)[C@@H](O)[C@H]1O [ATP, adenosine triphosphate]
NpsB
  kcat (apparent): 0.056 ± 0.002 s⁻¹
NpsB; read-out: KM (apparent)
  Km: 21 µM
NpsA [4]; pH 8
  kcat (apparent): 0.82 ± 0.01 s⁻¹
NpsA [4]; read-out: KM (apparent), pH 8
  Km: 15 µM

## Nc1ccccc1C(=O)O [Anthranilic acid]
NpsA [4]
  Km: 854 µM
  fold decrease in specificity constant (kcat/KM): 52 fold
NpsA [4]; pH 8
  kcat (apparent): 0.29 ± 0.01 s⁻¹
NpsA [4]; read-out: KM (apparent), pH 8
  Km: 850 µM

## O=C(O)[C@@H]1CCCN1 [L-Proline]
NpsB
  kcat (apparent): 0.037 ± 0.002 s⁻¹

## Nc1c(O)cccc1C(=O)NS(=O)(=O)NC[C@H]1O[C@@H](n2cnc3c(N)ncnc32)[C@H](O)[C@@H]1O [compound 5, 3-hydroxyanthraniloyl-AMS; 5′-[N-(2-Amino-3-hydroxybenzoyl)sulfamoyl]amino-5′-deoxyadenosine triethylammonium salt]
NpsA (wt-NpsA) [5]
  Ki: 54 nM
NpsA (wt-NpsA) [6]
  Kd: 29.3 nM

## Nc1ncnc2c1ncn2[C@@H]1O[C@H](CNS(=O)(=O)NC(=O)c2cccc(O)c2)[C@@H](O)[C@H]1O [compound 8, 3-hydroxybenzoyl-AMS; 5′-[N-(3-Hydroxybenzoyl)sulfamoyl]amino-5′-deoxyadenosine triethylammonium salt]
NpsA (wt-NpsA) [5]
  Ki: 230 nM
NpsA (wt-NpsA) [6]
  Kd: 112 nM

## Nc1ccccc1C(=O)NS(=O)(=O)NC[C@H]1O[C@@H](n2cnc3c(N)ncnc32)[C@H](O)[C@@H]1O [compound 9, anthraniloyl-AMS; 5′-[N-(2-Aminobenzoyl)sulfamoyl]amino-5′-deoxyadenosine triethylammonium salt]
NpsA (wt-NpsA) [5]
  Ki: 1200 nM
NpsA (wt-NpsA) [6]
  Kd: 485 nM

## NpsA (wt-NpsA) (Klebsiella oxytoca)
O=C(O)c1cccc(O)c1
  Km: (4.0 ± 0.9) × 10^3 uM
  kcat: 0.35 ± 0.07 s⁻¹
  kcat/Km: 88 ± 26 M⁻¹ s⁻¹
[7]
  Km: (1.5 ± 0.1) × 10^1 uM
  kcat: 0.82 ± 0.01 s⁻¹
  kcat/Km: 56000 ± 4000 M⁻¹ s⁻¹
Nc1c(O)cccc1C(=O)O
  Km: (6.3 ± 0.2) × 10^1 uM
  kcat: 0.78 ± 0.01 s⁻¹
  kcat/Km: 18000 ± 1000 M⁻¹ s⁻¹
